The conditions of data set [1]: cited from earlier work.
In data set [2] the test system is uterine smooth muscle induced by oxytocin. Nature of the data set: Contraction of uterine smooth muscle induced by oxytocin. The arrangement: species or system Wister rats; contraction frequency: unit not given here. The note with it: for contraction frequency: oxytocin 10 mu/ml alone; for contraction activity / contraction activity, controlling % / contraction frequency, controlling % / contraction range / contraction range, controlling %: oxytocin alone. The protocol: (§1) Twenty-four hours prior to the experiment, intramuscularly inject non-pregnant female rats with a 0.3 mg/kg weight-dose of Dihydrotheelin. The effect artificially puts them in estrus period so as to increase their sensitivity to the CCP. Decapitate the rats, rapidly paunch, take out the uterus and remove the fat. Cut the uterus in 2 cm of length and put it directly in the homothermic flume with 9 ml of the Locke's solution. One end of the uterus must be fixed on the crotchet of the L shaped ventilating pipe and the other end connected to the Muscle Tension Transducer. Keep the temperature of the homothermic flume at 32° C. Continuously emit oxygen into the fume, at least 60-80 bladders per minute and add in 1 ml of the previous solution with a different concentration. After recording a segment of normal contraction curve, observe the different phases before-and-after administering the drug. Respectively, record the contraction frequency and range. Observe from 1 to 10, 10 to 20, and 20 to 30 minutes before-and-after adding the drug solution. Count the uterine activity, and record data between control groups before-and-after administering the drug.
Observe CCP's effect in smooth muscle contraction of rats' extracorporeal uterine induced by oxytocin. Respectively, record the contraction frequency and range. Observe from 1 to 10, 10 to 20, and 20 to 30 minutes before-and-after adding the drug solution. Count the uterine activity and the inhibitory percentage. Record data as previously done.
Animals' Grouping: randomly divide Wister female rats' extra-corporeal uteruses into normal saline control group (NSG) and CCP's group. The CCP's group is formed by 4 subgroups with seven uteruses each. The dose of CCP's extract is respectively 5.4, 2.7, 1.3, and 0.6 mg/ml.
Results: after adding 10 mu/ml oxytocin to the normal uterine smooth muscle there is an increase of the contraction frequency and the uterine activity. The contraction range is also affected reaching its peak for about 10 min to then stabilize on the level. After 40 minutes, the effect gradually drops. After the oxytocin reacts for 10 minutes, add in a different dose of CCP's extract, and compare the possible differences between the CCP's group and the oxytocin's group. A 5.4, 2.7 mg/ml dose of CCP's extract can control the increase of uterine activity induced by oxytocin, and mainly reduce contraction frequency of uterine smooth muscle (See Table 8 and 13).

Data set [3] relates to rats' Whole Blood Ratio Viscosity. Kind of data set: Whole Blood Ratio Viscosity of rats. The format is in vivo, Wister rats. As to conditions: 0.2 g/kg, 5 days. How it is done:
Drug dispensation: put a 12.5 g extract of CCP in a 100 ml solution of normal saline and mix adequately. The drug concentration is 0.125 g/ml (containing 0.5 g/ml of crude drugs). Put a 25 extract of CCP in 100 ml of normal saline. The drug concentration is 0.25 g/ml (containing […] of crude drugs). Put a 50 extract of CCP in a 100 ml of normal saline and mix adequately. The drug concentration is 0.5 g/ml (containing 2 g/ml crude drugs).
Persantine: put 2 in normal saline and mix adequately. The drug concentration will be 20 mg/ml.
Experimental processing: Randomly divide male Wister rats weighing 250 to 300 g into five groups with eight rats in each group. Low, medium and high dose groups can take the extract of CCP in a concentration of 10 ml/kg. The concentration of crude drugs is 5 g/kg, 10.0 g/kg and 20 g/kg respectively. The control group takes normal saline of the same volume; positive medicine group takes 0.2 g/kg, which is 10 ml/kg of persantine. The drug must be administered once a day for five consecutive days. After an hour and a half of administering the drug on the fifth day, lightly anaesthetize the […] with ether. Record 40 test tubes, and put 0.1 ml heparin in each. Take blood from the abdominal aorta of the […] and fill each tube with 1 ml of blood. Then use XN-5 Type Blood Viscometer to determine the Whole Blood Ratio Viscosity.

For another data set, the system named is mice bone marrow cells. Kind of data set: Micronucleus test. The format is in vivo, ICR mouse. The protocol: 30 mice were randomly divided into 5 groups, each group contained 6 animals. Three of the groups were drug-groups and animals in them were given to CCP by gastric gavage at doses of 2.5 g/kg/day, 1.25 g/kg/day and 0.625 g/kg/day for 2 days. (LD50 of CCP from an acute toxicity test was 5 g/Kg, we adopted a half dose for our study). The fourth group is given to normal saline (0.5 ml/mice) as a negative control group. The last group was given to cyclophosphamide(CP) at 40 mg/Kg via abdominal cavity injection as a positive control group.
Animals were killed 24 hours after administration. Both femurs of the mice were taken for sampling. Femurs were pressed to move out the marrow, with a drop of calf serum added to it, smear the marrow on a plate. After the smeared plate was fixed in the solution of methyl for 10 minutes, it was dyed with the Giemsa's method and observed under the oil lens of a microscope. In the principle of double-blinded study, PCE and MNPCE cells were counted. 1000 PCE and MNPCE cell were counted for each mice, calculated the ratio of micronuclei over the 1000 cells. The ratio of micronuclei represents the dose-effectiveness relation. The data was analyzed with statistical t test.

In data set [4] the test system is rats' extra-corporeal uterine smooth muscle. Nature of the data set: Contraction of normal rats' extra-corporeal uterine smooth muscle. The arrangement: species or system Wister rats. The note with it: 7 μg/ml. The protocol:
a) Put 5.4g extract of CCP in 100 ml of the Locke's solution and mixed thoroughly. The drug concentration results in 54 mg/ml. Take 1 ml of this solution, put it into a homothermic flume with 9 ml of the Locke's solution. The drug concentration from this mixture contains 5.4 mg/ml. Likewise, put 2.7 g extract of CCP in 100 ml of the Locke's solution and mixed thoroughly. Take 1 ml of this mixture, combine it with 9 ml of Locke's solution and the drug concentration will result in 2.7 mg/ml. Mix up 100 ml of the Locke's solution with a 1.9 g CCP's extract. Take 1 ml of this mixture, combine it with 9 ml of the Locke's solution and the drug concentration will result in 1.9 mg/ml. Mix 200 ml of the Locke's solution with 2.6 of CCP's extract, the concentration will result in 13 mg/ml. Take 1 ml of this mixture, combine it with 9 ml of the Locke's solution which results in a drug concentration of 1.3 mg/ml. Mix 200 ml or 300 ml of the Locke's solution with 1.8 CCP's resulting in a drug concentration of 9 mg/ml and 6 mg/ml respectively. Take 1 ml of this mixture into homothermic flume with 9 ml of the Locke's solution. The result is a drug concentration containing 0.9 mg/ml and 0.6 mg/ml respectively
9.0 of NaCL, 0.42 of KCL, 0.24 of CaCL2, 0.2 of NaHCO3 and 1.0 g of glucose. Mixed with distilled water until obtaining 1000 ml. PH is about 7.
as §1
Animals' Grouping: randomly divide the Wister female rats' extracorporeal uteruses into a normal saline control group (NSG) and a CCP group (CCPG). […]

The mark [5] stands for this setting: cyclophosphamide 40 mg/Kg, per 1000 cells.

We go through five molecules from patent US7691387B2, “Cinnamomi and poria composition, method to prepare same and uses thereof” (Jiangsu Kanion Pharmaceutical Co., Ltd, priority 2000, dated 2010).

Read-outs that look alike come from different tables or passages of the source.

In the case of `N#C[C@H](O[C@@H]1O[C@H](CO[C@@H]2O[C@H](CO)[C@@H](O)[C@H](O)[C@H]2O)[C@@H](O)[C@H](O)[C@H]1O)c1ccccc1` [Amygdalin, Benzeneacetonitrile, α-[(6-O-β-D-glucopyranosyl-β-D-glucopyranosyl)oxy]-, (R)—], the “volume in which 1 g resolves” value in data set [1] (boiling ethanol) was 11 mL; in data set [1] (ethanol), 900 mL; in data set [1] (water), 12 mL.

`CC[C@H](C)[C@@H]1NC(=O)[C@H](Cc2ccc(O)cc2)NC(=O)[C@@H](N)CSSC[C@@H](C(=O)N2CCC[C@H]2C(=O)N[C@@H](CC(C)C)C(=O)NCC(N)=O)NC(=O)[C@H](CC(N)=O)NC(=O)[C@H](CCC(N)=O)NC1=O` [Oxytocin]: the contraction frequency in data set [2] (after adm. 1-10 mins) came to 11.7 ± 1.5; in data set [2] (after adm. 10-20 mins) it was 11.6 ± 1.9; in data set [2] (after adm. 20-30 mins), 10.9 ± 1.17; in data set [2] (before adm.), 7.0 ± 1.3. In addition, the contraction activity in data set [2] (after adm. 1-10 mins) was 118.8 ± 77.6%; in data set [2] (after adm. 10-20 mins), 129.6 ± 97.3%; in data set [2] (after adm. 20-30 mins) it was 111.2 ± 86.5%; in data set [2] (before adm.), 56.9 ± 21.6%; in data set [2] (column Oxytocin), 84.7 ± 22.0%. The “contraction activity, controlling %” value in data set [2] (after adm. 1-10 mins) is −108.8%; in data set [2] (after adm. 10-20 mins), −127.8%; in data set [2] (after adm. 20-30 mins) it was −95.4%; in data set [2] (column Oxytocin), −48.9%. Besides, the “contraction frequency, controlling %” value is −67.1% in data set [2] (after adm. 1-10 mins), −65.7% in data set [2] (after adm. 10-20 mins), −55.7% in data set [2] (after adm. 20-30 mins) and −91.4% in data set [2] (column Oxytocin). The contraction range is recorded as 9.7 ± 5.0 mm in data set [2] (after adm. 1-10 mins); 10.4 ± 5.7 mm in data set [2] (after adm. 10-20 mins); 9.7 ± 6.1 mm in data set [2] (after adm. 20-30 mins); 8.0 ± 2.6 mm in data set [2] (before adm.); 7.3 ± 3.2 mm in data set [2] (column Oxytocin). Besides, the “contraction range, controlling %” value in data set [2] (after adm. 1-10 mins) is reported as −21.3%; in data set [2] (after adm. 10-20 mins) it was −30.0%; in data set [2] (after adm. 20-30 mins) it was −21.3%; in data set [2] (column Before adm.) it was 8.8%.

Take `OCCN(CCO)c1nc(N2CCCCC2)c2nc(N(CCO)CCO)nc(N3CCCCC3)c2n1` [Persantine]: in data set [3], the “Whole Blood Ratio Viscosity, high shear” value came out at 12.10 ± 1.90 and the “Whole Blood Ratio Viscosity, low shear” value came to 16.12 ± 6.92.

Regarding `O=P1(N(CCCl)CCCl)NCCCO1` (stereo not drawn) [Positive control, cyclophosphamide], in the data set on mice bone marrow cells (cyclophosphamide 40 mg/Kg abdominal cavity injection, 6000 PCE cells), the “number of Micronuclei” value is 381. Moreover, in the data set on mice bone marrow cells (setting [5]), the “incidence of micronuclei, Range” value is 43-98 and the “incidence of micronuclei, X ± SD” value amounted to 63.5000 ± 20.6373. Besides, in the data set on mice bone marrow cells (cyclophosphamide injection 40 mg/Kg), the “incidence of micronucleus” value is “obviously higher than the negative control”.

As for Pregnendione [Progestin], in data set [4], the “contraction frequency of rats' uterine smooth muscle” value is listed as “can control contraction frequency”. For the same molecule, the contraction frequency in data set [4] (after adm. 0-20 mins) is recorded as 6.3 ± 2.5 time/10 mins. Besides, in data set [4] (after adm. 1-10 mins), the contraction activity is 47.2 ± 22.9%; the “contraction activity, controlling %” value turned out to be 31.9%; the contraction frequency worked out at 6.1 ± 2.0 time/10 mins; the “contraction frequency, controlling percentage” value stood at 23.8%. In addition, in data set [4] (after adm. 1-10 mins), the contraction range was determined as 7.4 ± 2.3 mm and the “contraction range, controlling percent” value stood at 14.0%. In data set [4] (after adm. 10-20 mins), the contraction activity is given as 46.3 ± 27.9%; the “contraction activity, controlling %” value is reported as 33.2%; the “contraction frequency, controlling percentage” value is given as 21.3%; the contraction range is recorded as 7.0 ± 2.6 mm. Moreover, the “contraction range, controlling percent” value in data set [4] (after adm. 10-20 mins) is 18.6%. Besides, in data set [4] (after adm. 20-30 mins), the contraction activity is reported as 35.2 ± 22.5%; the “contraction activity, controlling %” value is on record as 49.2%; the contraction frequency came out at 5.0 ± 2.4 time/10 mins; the “contraction frequency, controlling percentage” value stood at 37.5%. In addition, in data set [4] (after adm. 20-30 mins), the contraction range stood at 7.0 ± 2.8 mm and the “contraction range, controlling percent” value was 18.6%. For the same molecule, in data set [4] (before adm.), the contraction activity is 69.3 ± 20.9%, the contraction frequency amounted to 8.0 ± 0.8 time/10 mins and the contraction range was determined as 8.6 ± 2.2 mm.
